Measurements reported in US20040181343A1, “Computer program products and systems for rapidly changing the solution environment around sensors” (Cellectricon AB, priority 2002, published 2004).

System: PC-12 cell
Conditions: cell-scanning speed 250 μm/s
From the text: The flow rate was 3.24 mm/s and the cell scanning speed was 250 μm/s.
In these applications, as discussed above, both the flow rate of the fluids exiting the microchannels and the scan rate of the patch clamped cell are important. […] The width of each microchannel is 100 μm, the thickness is 50 μm, and the intermicrochannel spacing is 25 μm. The procedure used for fabricating the microchannels and for patch clamping are identical to that described in Example 2 (see above). The patch clamped cell used was a PC-12 cell, which was placed between 10 to 20 micrometers away from the outlets of the microchannels. Microchannels 1, 3, 5 and 7 were filled with PBS buffer, while microchannels 2, 4 and 6 were filled with acetylcholine. The flow rate of the fluid streams was 6.8 mm/s.
In a 7-microchannel structure, microchannels 1, 3, 5 and 7 were filled with PBS buffer, whereas microchannels 2, 4, and 6 were filled with 1 μM, 12 μM, and 200 μM nicotine, respectively. The flow rate used was […] and the cell-scanning speed was 250 μm/s. The patch-clamped cell was placed between 10 to 20 μm away from the outlet of the microchannel.

In the case of `CN1CCCC1c1cccnc1` (stereo not drawn) [nicotine], the Whole-cell current response (1 μM nicotine) is reported as “barely discernible”, the Whole-cell current peak (12 μM nicotine) is reported as “detected with good signal-to-noise ratio” and the “Current peak at 200 μM relative to the peak for 12 μM” value (200 μM nicotine versus 12 μM) is reported as 15 to 20 times.
